According to publication PMC3675115, “Mycobacterium tuberculosis Rv3406 Is a Type II Alkyl Sulfatase Capable of Sulfate Scavenging” (PLoS ONE, 2013):
Structures can show the parent of a compound that is named as a salt.

Key:
Rv3406 = Rv3406 (Mycobacterium tuberculosis, UniProt P9WKZ1); assay: NADH/LADH coupled assay, […] nm; assay type: biochemical; settings: co-substrate with 2-EHS, Fe(II), ascorbate, pH 7.5, 25 C
AtsK = biological target: T1, AtsK (Pseudomonas putida, UniProt Q9WWU5); assay: NADH/LADH coupled assay, […] nm; assay type: biochemical; settings: alpha-ketoglutarate, Fe(II), ascorbate; 1 and 10 mM substrate
T1 construct: not described in main text (supplement File S1)
T1 sequence (Q9WWU5 whole entry): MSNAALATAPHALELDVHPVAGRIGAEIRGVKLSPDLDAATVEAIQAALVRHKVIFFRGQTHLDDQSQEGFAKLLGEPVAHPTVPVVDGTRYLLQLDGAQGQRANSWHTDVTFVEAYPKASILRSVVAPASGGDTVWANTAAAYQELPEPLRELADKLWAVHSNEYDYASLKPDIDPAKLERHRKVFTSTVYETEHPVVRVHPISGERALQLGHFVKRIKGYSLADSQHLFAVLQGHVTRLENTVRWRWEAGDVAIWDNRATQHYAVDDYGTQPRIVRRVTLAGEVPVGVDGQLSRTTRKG

## O=C(O)CCC(=O)C(=O)O [α-ketoglutarate]
Rv3406
  NADH/LADH coupled assay, 340 nm: Rv3406’s activity on 2-EHS is dependent on the cosubstrate αKG

## CCCCC(CC)COS(=O)(=O)O (centres unmarked) [2-ethylhexyl sulfate]
AtsK
  NADH/LADH coupled assay, 340 nm: we also tested AtsK and found 2-EHS was its preferred substrate as well
